Assay results from patent US20030087761A1, “Synergistic active compound combinations for controlling harmful plants” (priority 2001, published 2003).

How the values were obtained:
Assay type in all cases: in vivo
Corn = assay: Field trial in corn, pre-emergence method: crop damage
Method: (§1) The herbicidal efficacy of the active compounds or active compound mixtures was scored visually using the treated plots in comparison to untreated control plots. The damage and development of all above-ground parts of the plants were recorded. Scoring was carried out using a percentage scale (100% effect=all plants killed; 50% effect=50% of the plants and the green parts of the plants killed; 0% effect no noticeable effect=like control plot). The scores of in each case 4 plots were averaged.
(§2) Crop plants were grown outdoors on plots under natural outdoor conditions, and seeds or rhizome pieces of typical harmful plants were laid out or the natural weed growth was utilized. Treatment with the compositions according to the invention was carried out after the harmful plants had emerged and the crop plants were, generally, at the 2- to 4-leaf stage; in some cases (as stated), application of individual active compounds or active compound combinations was carried out pre-emergence (cf. Section 1) or post-emergence (cf. Section 2) or as a sequential treatment partly pre-emergence and/or post-emergence. After the application, for example 2, 4, 6 and 8 weeks after the application, the effect of the preparations was scored visually by comparison with untreated controls (cf. scoring in Section 1). In the field trial as well, the compositions according to the invention have synergistic herbicidal activity against a broad spectrum of economically important weed grasses and broad-leaved weeds. […] Moreover, the effects in essential phases of the scoring period were above the expected values according to Colby, also indicating synergism. In contrast, the crop plants were, as a consequence of the treatments with the herbicidal compositions, damaged only to a small degree, if at all.
(§3) The numbers in the columns of the table under the designations of the harmful plants and the crop plants relate to the herbicidal effects or damage to the plants in percent.

CHEAL = assay: Field trial in corn, pre-emergence method: herbicidal effect on CHEAL; details: evaluation 36 days after application
Method: as §1, §2, §3

ECHCG = assay: Field trial in corn, pre-emergence method: herbicidal effect on ECHCG; details: evaluation 36 days after application
Method: as §1, §2, §3

Winter wheat = assay: Field trial in winter wheat, post-emergence method: crop damage; details: post-emergence at middle tillering stage, evaluation 21 days after application, dose 50 g ai/ha
Method: as §1
(§4) Crop plants were grown outdoors on plots under natural outdoor conditions, and seeds or rhizome pieces of typical harmful plants were laid out or the natural weed growth was utilized. Treatment with the compositions according to the invention was carried out after the harmful plants had emerged and the crop plants were, generally, at the 2- to 4-leaf stage; in some cases (as stated), application of individual active compounds or active compound combinations was carried out pre-emergence (cf. Section 1) or post-emergence (cf. Section 2) or as a sequential treatment partly pre-emergence and/or post-emergence. After the application, for example 2, 4, 6 and 8 weeks after the application, the effect of the preparations was scored visually by comparison with untreated controls (cf. scoring in Section 1). […]

[1] = tested on: APESV = Apera spica-venti (common wind grass); assay: Field trial in winter wheat, post-emergence method: herbicidal effect on APESV; details: post-emergence at middle tillering stage, evaluation 21 days after application, dose 50 g ai/ha
Method: as §1, §4

[2] = field trial, pre-emergence, evaluation 36 days after application, dose 75 g ai/ha

Row | Structure (SMILES) | Corn [damage in %] (Corn; [2]) [%] | CHEAL [effect in %] (CHEAL; dose 75 g ai/ha) [%] | ECHCG [effect in %] (ECHCG; dose 75 g ai/ha) [%] | Winter wheat [damage in %] (Winter wheat) [%] | APESV [effect in %] [1] [%] | other results
1 | CC(F)c1nc(N)nc(C(C)c2ccc(F)c(F)c2)n1 (stereo not shown) [(A11), 2-amino-4-(1-fluoroethyl)-6-[1-(3,4-difluorophenyl)ethyl]-1,3,5-triazine] | 0 | 0 | 0 |  |  | 
2 | CCC(F)c1nc(N)nc(C(C)c2ccc(F)c(C)c2)n1 (stereo not shown) [(A20), 2-amino-4-(1-fluoropropyl)-6-[1-(3-methyl-4-fluorophenyl)ethyl]-1,3,5-triazine] | 0 | 20 | 0 |  |  | 
3 | CCC(F)c1nc(N)nc(C(C)c2ccc(F)c(Cl)c2)n1 (stereo not shown) [(A50), 2-amino-4-(1-fluoropropyl)-6-[1-(3-chloro-4-fluorophenyl)ethyl]-1,3,5-triazine] |  |  |  | 0 | 0 | 
4 | CCC(F)c1nc(N)nc(C(C)c2cc(F)cc(F)c2)n1 (stereo not shown) [(A60), 2-amino-4-(1-fluoropropyl)-6-[1-(3,5-difluorophenyl)ethyl]-1,3,5-triazine] |  |  |  | 0 | 0 | 
5 | CS(=O)(=O)c1cc(C(F)(F)F)ccc1C(=O)c1cnoc1C1CC1 [(B3.4.4), isoxaflutole, reference compound] |  |  |  |  |  | Corn [damage in %] (Corn; corn, in vivo, 36 days): 0%; CHEAL [effect in %] (CHEAL; dose 50 g ai/ha): 25%; ECHCG [effect in %] (ECHCG; dose 50 g ai/ha): 86%
